According to paper PMC3976407, “Inhibition of Fatty Acid Binding Proteins Elevates Brain Anandamide Levels and Produces Analgesia” (PLoS ONE, 2014):

How the values were obtained:
HeLa cells = test: Cytotoxicity, MTT colorimetric assay; format: cell-based; details: 24 hr incubation, n = 3
Description: Cytotoxicity of the FABP inhibitors SBFI26 and BMS309403 were examined using the MTT [3-(4,5-dimethylthiazol-2-yl)-2,5 diphenyl tetrazolium bromide] colorimetric assay. HeLa cells were seeded into 96-well plates (15,000 cells/well) and incubated for 24 hours at 37°C in DMEM supplemented with 10% FBS, penicillin (100 U/mL) and streptomycin (100 μg/mL). The cells were subsequently washed with PBS and treated with serum-free DMEM containing 10 nM to 1 mM SBFI26, BMS309403, or 5 mM hydrogen peroxide as a positive control. Following a 24 hr incubation, the cells were washed with PBS and treated with MTT (0.5 mg/mL in PBS) for 4 hrs. The cells were subsequently solubilized using DMSO and the absorbance was read at 562 nm in a microplate reader.

FABP7 [1] = target: T1, FABP7 (Homo sapiens, UniProt O15540); design: method as in PMID 22170058; details: determined previously ref 9; cited from earlier work
FABP3 [2] = target: T2, FABP3 (Homo sapiens, UniProt P05413); design: method as in PMID 22170058; details: determined previously ref 9; cited from earlier work
FABP5 [3] = target: T3, FABP5 (Homo sapiens, UniProt Q01469); design: method as in PMID 22170058; details: determined previously ref 9; cited from earlier work
[4] = tested on: acetic acid-induced writhing in mice; test: Acetic acid-induced writhing; format: in vivo, mouse; details: for Effect upon acetic acid-induced writhing: 20 mg/kg, subcutaneous, 60 min before acetic acid
Description: Mice were acclimated to the laboratory environment for at least two hours and were habituated to the testing chamber for 30 min prior to acetic acid challenge. SBFI26, SBFI50, SBFI60, and SBFI62 (20 mg/kg) were administered via the subcutaneous route 60 min before acetic acid. Rimonabant, SR144528, GW6471, and naloxone were given 10 min before the inhibitors via the subcutaneous route. The mice subsequently received an i.p. injection of acetic acid (0.6% in sterile saline, 10 μl/g) and were placed in observation chambers. Abdominal stretches (marked by extension of the body and hind limbs) were counted for 20 min starting at 5 min post-injection.

[5] = tested on: formalin-induced nociception in mice; test: Formalin test; format: in vivo, mouse; details: 20 mg/kg, i.p.; for Effect upon first phase of formalin-induced nociception: first phase 0–5 min
Description: Mice were habituated to the observation chamber (Plexiglas box, 25 cm×25 cm×25 cm) for 30 min prior to formalin injection. Mice were administered FABP inhibitors 60 min prior to formalin. The animals subsequently received an injection of formalin (2.5% in saline, 20 μl) into the plantar surface of the right hind paw using a 30 gauge needle and were immediately placed back into the observation chamber and nocifensive behavior (time spent licking or biting the paw) was recorded for 60 min. Nocifensive behavior was scored during the first phase (0–5 min) and the second phase (∼15–45 min) of the formalin test.

rats subjected to CCI = test: Rat neuropathic pain model (chronic constriction injury of the sciatic nerve); format: in vivo; details: 20 mg/kg i.p.
Source text: Male Fisher 344 rats were habituated and pre-injury evoked responses were obtained. The Hargreaves test was used to assess thermal hyperalgesia. Briefly, plexiglass enclosures were set atop a plexiglass platform and infrared source set at 50% power located under the platform was used as the heat stimulus (Ugo Basile). A 200 mW, 535 nm diode laser was mounted in an adjustable stand placed beneath the plexiglass platform, and was used as an alternative heat stimulus for some of the animals in this study. The latency time to hind paw lift during heating of the plantar surface was recorded. Five recordings were obtained on each hind paw with at least 2 min rest between measurements. The maximum time for exposure to the infrared or diode laser source was 30.5 s to avoid any possible tissue injury. For mechanical threshold measurements, the animal enclosures rested on a screen with mesh of 0.5 cm spacing. Following acclimation, an electronic von Frey Anesthesiometer (IITC Life Sciences) was applied with increasing pressure to the plantar surface of the hind paw until the animals lifted the hind paw. The number of grams of force applied by the probe to induce withdrawal was recorded. Five recordings were obtained on each hind paw with at least 3 min between measurements. For CCI surgeries, our procedure closely followed that reported previously. Briefly, each animal received an i.p. injection of ketamine/xylazine (75 mg/kg and 10 mg/kg, respectively). The hind leg was surgically prepped and the anesthetized animal placed prone on an sterile towel over a heating pad. The temperature was monitored rectally. A skin incision was made mid-thigh with a medium curved scalpel and then scissors were used to expose the sciatic nerve. Approximately 1 cm of the main trunk proximal to the trifuraction was isolated and 4 strands of 4-0 chromic gut were tied around the nerve ∼ 1 mm apart under magnification. In a modification of the original method, a 2-0 prolene strand was placed between the nerve and the gut to which the suture was tightened. The prolene strand was then removed. This prevented over tightening and reduced subsequent motor paralysis. The muscle layers were then reopposed and sutured, and surgical staples were used to close the skin. On post-injury days 7 through 10, heat and mechanical measurements were obained for the ipsilateral hindpaw of each CCI animal. Immediately following the post-injury measurements, animals were randomized and received i.p. injections of vehicle or 20 mg/kg SBI26 (DMSO:cremophor:sterile saline 1∶1∶2 by volume). Up to 0.8 ml of drug or vehicle was injected. The observer was blinded as to administration of drug or vehicle. Thermal and mechanical measurements were performed at 1 and 4 h post-injection. Data were normalized to pre-injury baseline measurements for each animal.

[6] = tested on: carrageenan-induced thermal hyperalgesia and paw edema in mice; test: Carrageenan-induced paw edema and thermal hyperalgesia; format: in vivo, mouse; details: 20 mg/kg, i.p.
Description: Paw edema was induced by injecting 1% λ-carrageenan (20 μl, in sterile saline) into the plantar surface of the left hind paw using a 30 gauge needle attached to a glass syringe (Hamilton Company). Paw diameters were measured before carrageenan injection and 4 or 24 hours after injection using digital electronic calipers (Fisher) and expressed to the nearest ± 0.01 mm. SBFI26, SBFI50, SBFI60, and SBFI62 were dissolved in DMSO:cremophor-EL:saline (4% DMSO:10% Cremophor-EL) and administered (20 mg/kg, i.p.) 60 min prior to injection of carrageenan. Receptor antagonists were injected 10 min before the inhibitors. Rimonabant and SR144528 (3 mg/kg, i.p.) were dissolved in ethanol:cremophor-EL:saline (1∶1∶18) while GW6471 (4 mg/kg, i.p.) was dissolved in DMSO:cremophor-EL:saline (2% DMSO:5% Cremophor-EL). Edema is reported as the change in paw diameter at 24 hr compared to the baseline. Thermal hyperalgesia was measured using the Hargreaves plantar apparatus (Ugo Basile) as previously reported.

FABP3 [7] = target: T2, FABP3; test: NBD-stearate fluorescence displacement binding
Description: (§1) Inhibitory constant (Ki) values were elucidated utilizing NBD-stearate fluorescence displacement as described previously [9], [31]. The tests were performed in 96-well plates containing inhibitors (0.1 – 50.0 μM), FABP, and NBD-stearate. Fluorescence intensity was measured with a FLUOstar OPTIMA spectrofluorometer with excitation and emission wavelengths of 460 and 544 nm, respectively.

FABP7 [8] = target: T1, FABP7; test: NBD-stearate fluorescence displacement binding
Description: as §1

FABP5 [9] = target: T3, FABP5; test: NBD-stearate fluorescence displacement binding; details: averages ± S.E. of three independent experiments
Description: Inhibitory constant (Ki) values were elucidated utilizing NBD-stearate fluorescence displacement as described previously, [31]. The tests were performed in 96-well plates containing inhibitors (0.1 – 50.0 μM), FABP, and NBD-stearate. Fluorescence intensity was measured with a FLUOstar OPTIMA spectrofluorometer with excitation and emission wavelengths of 460 and 544 nm, respectively.

T3 sequence (Q01469 whole entry, species assumed): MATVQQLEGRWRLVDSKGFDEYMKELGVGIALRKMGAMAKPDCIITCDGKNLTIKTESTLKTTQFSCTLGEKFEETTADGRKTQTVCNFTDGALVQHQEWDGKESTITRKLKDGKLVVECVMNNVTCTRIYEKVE
T2 sequence (P05413 whole entry, species assumed): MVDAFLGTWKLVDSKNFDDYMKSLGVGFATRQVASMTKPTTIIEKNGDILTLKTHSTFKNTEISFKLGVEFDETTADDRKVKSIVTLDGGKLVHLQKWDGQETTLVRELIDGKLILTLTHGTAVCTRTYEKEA
T1 sequence (O15540 whole entry, species assumed): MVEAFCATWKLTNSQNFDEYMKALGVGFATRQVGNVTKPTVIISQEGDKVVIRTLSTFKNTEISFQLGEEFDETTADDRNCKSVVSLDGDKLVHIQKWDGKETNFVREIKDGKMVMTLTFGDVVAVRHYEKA

| Structure (SMILES) | Effect upon first phase of formalin-induced nociception [5] | Effect upon acetic acid-induced writhing [4] | Effect upon carrageenan-induced paw edema [6] | Effect upon carrageenan-induced thermal hyperalgesia [6] | Ki (FABP3 [7]) | Ki (FABP7 [8]) | Ki (FABP5 [9]) | also measured |
| --- | --- | --- | --- | --- | --- | --- | --- | --- |
| CCc1c(-c2ccccc2)c(-c2ccccc2)nn1-c1ccccc1-c1cccc(OCC(=O)O)c1 [BMS309403, reference compound] |  |  |  |  |  |  |  | Cytotoxicity _50 values (HeLa cells): 11.3 ± 0.9 µM |
| CCCCCCC(CCCCCCCCCCC(=O)O)N(C)c1ccc([N+](=O)[O-])c2nonc12 (centres unmarked) [NBD-stearate, 12-N-methyl-(7-nitrobenz-2-oxa-1,3-diazo)aminostearicacid] |  |  |  |  |  |  |  | Kd (FABP7 [1]): 220 nM; Kd (FABP3 [2]): 180 nM; Kd (FABP5 [3]): 160 nM |
| O=C(Nc1cccnc1)N1CCC(Cc2cccc(Oc3ccc(C(F)(F)F)cn3)c2)CC1 [PF-3845, reference compound] |  |  |  |  |  |  |  | Antinociceptive effects in the acetic acid test after pretreatment with CB1 antagonist rimonabant ([4]; rimonabant 3 mg/kg 10 min before inhibitor): blocked |
| O=C(O)C1C(c2ccccc2)C(C(=O)Oc2ccc3ccccc3c2)C1c1ccccc1 (stereo not drawn) [SBFI50, alpha-2,4-diphenylcyclobutane-1,3-dicarboxylic acid mono-2-naphthyl ester] | reduced | without effect | reduced | reduced | 3500 ± 300 nM | 600 ± 100 nM | 1300 ± 200 nM | Effect on mechanical thresholds in CCI rats (rats subjected to CCI; 1 and 4 h): Neither compound altered; Effect on thermal hyperalgesia in CCI rats (rats subjected to CCI; measured 1 and 4 h post-injection): without effect |
| O=C(O)C1C(c2ccccc2)C(C(=O)Nc2cccc3ccccc23)C1c1ccccc1 (stereo not drawn) [SBFI60, alpha-2,4-diphenylcyclobutane-1,3-dicarboxylic acid mono-1-naphthyl amide] | reduced | without effect | without effect | without effect | > 10000 nM | 300 nM | 1600 nM |  |
| O=C(Nc1cccc2ccccc12)C1C(c2ccccc2)C(C(=O)Nc2cccc3ccccc23)C1c1ccccc1 (centres unmarked) [SBFI62, 2,4-diphenylcyclobutane-1,3-dicarboxylic acid di-1-naphthyl amide] | without effect | without effect | without effect | without effect | 2600 ± 1100 nM | 6100 ± 500 nM | 3300 ± 700 nM | Effect upon second phase of formalin-induced nociception ([5]; second phase ∼15–45 min): without effect |
